# In patent US10300065B2, “Method of treating or prevention of atherothrombotic events in patients with history of myocardial infarction” (ASTRAZENECA AB, priority 2015, dated 2019):
# Tests used:
# [1] = system: patients with a history of myocardial infarction; experiment: PEGASUS-TIMI 54 analysis by time from P2Y12 inhibitor withdrawal to randomization; settings: for TIMI Major Bleeding, (%) / TIMI Major or Minor Bleeding, (%) / All-cause mortality, HR / Cor. heart dis. death, HR / Fatal bleeding, HR / Intracranial bleeding, HR / Myocardial infarction, HR / Stroke, HR / TIMI Major Bleeding, HR / TIMI Major or Minor Bleeding, HR / All-cause mortality, (%) / Cor. heart dis. death, (%) / Fatal bleeding, (%) / Intracranial bleeding, (%) / Myocardial infarction, (%) / Stroke, (%): at 3 years
# From the text: Patients in PEGASUS-TIMI 54 were further categorized by time from last P2Y12 inhibitor (days: ≤30 days, 31-360, >360).
# clinical = type: in vivo; settings: for concentration at 2 h: human, plasma, oral, post dose (2 h)
# Experimental: The pharmacokinetics (PK) and pharmacodynamics of the 60 mg bid dose had not previously been studied. […] 180 patients who had received >4 weeks of study medication had blood sampling in the morning pre-maintenance dose and again 2 h post-dose. All patients were receiving aspirin. […] Well-known VerifyNow® P2Y12 assay and light transmittance aggregometry (LTA; ADP 20 uM) were performed. Groups were compared using Kruskal-Wallis test with significance attached to P<0.01 to allow for multiple group comparisons.
# thromboxane B2 = settings: either ticagrelor group
# platelets = settings: for most patients; cited from earlier work
# [2] = >30 days to ≤1 year from P2Y12 inhibitor withdrawal, ticagrelor 90 mg bid
# [3] = >30 days to ≤1 year from P2Y12 inhibitor withdrawal, ticagrelor pooled vs. placebo
# [4] = >30 days to ≤1 year from P2Y12 inhibitor withdrawal, ticagrelor pooled
# [5] = pooled doses, withdrawal within 30 days
# [6] = ≤30 days from P2Y12 inhibitor withdrawal, ticagrelor 60 mg bid vs. placebo
# [7] = ≤30 days from P2Y12 inhibitor withdrawal, ticagrelor 60 mg bid
# [8] = ≤30 days from P2Y12 inhibitor withdrawal, ticagrelor 90 mg bid vs. placebo
# [9] = ≤30 days from P2Y12 inhibitor withdrawal, ticagrelor 90 mg bid
# [10] = ≤30 days from P2Y12 inhibitor withdrawal, ticagrelor pooled vs. placebo
# [11] = ≤30 days from P2Y12 inhibitor withdrawal, ticagrelor pooled
structure (smiles),measurement,setting,value
"CCCSc1nc(N[C@@H]2C[C@H]2c2ccc(F)c(F)c2)c2nnn([C@@H]3C[C@H](OCCO)[C@@H](O)[C@H]3O)c2n1 [Ticagrelor, (1S,2S,3R,5S)-3-[7-{[(1R,2S)-2-(3,4-difluorophenyl)cyclopropyl]amino}-5-(propylthio)-3H-[1,2,3]-triazolo[4,5-d]pyrimidin-3-yl]-5-(2-hydroxyethoxy)cyclopentane-1,2-diol]","TIMI Major Bleeding, (%)",[1]; [2],(2.8) %
same,"TIMI Major or Minor Bleeding, (%)",[1]; [2],(3.9) %
same,"All-cause mortality, HR",[1]; [3],0.88
same,"Cor. heart dis. death, HR",[1]; [3],0.70
same,"Fatal bleeding, HR",[1]; [3],0.57
same,"Intracranial bleeding, HR",[1]; [3],1.81
same,"Myocardial infarction, HR",[1]; [3],0.85
same,"Stroke, HR",[1]; [3],0.91
same,"TIMI Major Bleeding, HR",[1]; [3],2.89
same,"TIMI Major or Minor Bleeding, HR",[1]; [3],3.11
same,"All-cause mortality, (%)",[1]; [4],(4.3) %
same,"Cor. heart dis. death, (%)",[1]; [4],(1.4) %
same,"Fatal bleeding, (%)",[1]; [4],(0.2) %
same,"Intracranial bleeding, (%)",[1]; [4],(0.5) %
same,"Myocardial infarction, (%)",[1]; [4],(4.4) %
same,"Stroke, (%)",[1]; [4],(1.7) %
same,"TIMI Major Bleeding, (%)",[1]; [4],(2.7) %
same,"TIMI Major or Minor Bleeding, (%)",[1]; [4],(3.8) %
same,"HR for cardiovascular death, myocardial infarction, or stroke vs. placebo","[1]; doses pooled, withdrawal ≤30 days, beyond 90 days",0.76
same,"HR for cardiovascular death, myocardial infarction, or stroke vs. placebo","[1]; doses pooled, withdrawal ≤30 days, first 90 days after randomization",0.54
same,reduction in the risk of developing a subsequent atherothrombotic event,[1]; more than one year after withdrawal of previous dual antiplatelet therapy,did not experience a reduction
same,"HR for cardiovascular death, myocardial infarction, or stroke vs. placebo","[1]; pooled doses, time from last P2Y12 inhibitor 31-360 days",0.86
same,"HR for cardiovascular death, myocardial infarction, or stroke vs. placebo","[1]; pooled doses, time from last P2Y12 inhibitor >360 days",1.01
same,"HR for cardiovascular death, myocardial infarction, or stroke vs. placebo","[1]; pooled doses, time from last P2Y12 inhibitor ≤30 days",0.73
same,HR for cardiovascular death vs. placebo,[1]; [5],0.78
same,HR for myocardial infarction vs. placebo,[1]; [5],0.72
same,HR for stroke vs. placebo,[1]; [5],0.64
same,"HR for cardiovascular death, myocardial infarction, or stroke vs. placebo","[1]; pooled doses, ≤30 days of stopping, qualifying MI <2 years prior to randomization",0.73
same,"HR for cardiovascular death, myocardial infarction, or stroke vs. placebo","[1]; pooled doses, ≤30 days of stopping, qualifying MI ≥2 years prior to randomization",0.71
same,"All-cause mortality, HR",[1]; [6],0.80
same,"Cor. heart dis. death, HR",[1]; [6],0.78
same,"Fatal bleeding, HR",[1]; [6],2.15
same,"Intracranial bleeding, HR",[1]; [6],1.53
same,"Myocardial infarction, HR",[1]; [6],0.78
same,"Stroke, HR",[1]; [6],0.64
same,"TIMI Major Bleeding, HR",[1]; [6],3.3
same,"TIMI Major or Minor Bleeding, HR",[1]; [6],3.43
same,"All-cause mortality, (%)",[1]; [7],(4.3) %
same,"Cor. heart dis. death, (%)",[1]; [7],(1.5) %
same,"Fatal bleeding, (%)",[1]; [7],(0.4) %
same,"Intracranial bleeding, (%)",[1]; [7],(0.8) %
same,"Myocardial infarction, (%)",[1]; [7],(5.2) %
same,"Stroke, (%)",[1]; [7],(1.5) %
same,"TIMI Major Bleeding, (%)",[1]; [7],(2.6) %
same,"TIMI Major or Minor Bleeding, (%)",[1]; [7],(4.1) %
same,"All-cause mortality, HR",[1]; [8],1.02
same,"Cor. heart dis. death, HR",[1]; [8],0.67
same,"Fatal bleeding, HR",[1]; [8],2.25
same,"Intracranial bleeding, HR",[1]; [8],2.07
same,"Myocardial infarction, HR",[1]; [8],0.67
same,"Stroke, HR",[1]; [8],0.64
same,"TIMI Major Bleeding, HR",[1]; [8],3.44
same,"TIMI Major or Minor Bleeding, HR",[1]; [8],3.57
same,"All-cause mortality, (%)",[1]; [9],(5.1) %
same,"Cor. heart dis. death, (%)",[1]; [9],(1.1) %
same,"Fatal bleeding, (%)",[1]; [9],(0.2) %
same,"Intracranial bleeding, (%)",[1]; [9],(0.7) %
same,"Myocardial infarction, (%)",[1]; [9],(4.6) %
same,"Stroke, (%)",[1]; [9],(1.3) %
same,"TIMI Major Bleeding, (%)",[1]; [9],(2.4) %
same,"TIMI Major or Minor Bleeding, (%)",[1]; [9],(3.8) %
same,"All-cause mortality, HR",[1]; [10],0.91
same,"Cor. heart dis. death, HR",[1]; [10],0.72
same,"Fatal bleeding, HR",[1]; [10],2.2
same,"Intracranial bleeding, HR",[1]; [10],1.79
same,"Myocardial infarction, HR",[1]; [10],0.72
same,"Stroke, HR",[1]; [10],0.64
same,"TIMI Major Bleeding, HR",[1]; [10],3.36
same,"TIMI Major or Minor Bleeding, HR",[1]; [10],3.50
same,"All-cause mortality, (%)",[1]; [11],(4.7) %
same,"Cor. heart dis. death, (%)",[1]; [11],(1.3) %
same,"Fatal bleeding, (%)",[1]; [11],(0.3) %
same,"Intracranial bleeding, (%)",[1]; [11],(0.7) %
same,"Myocardial infarction, (%)",[1]; [11],(4.9) %
same,"Stroke, (%)",[1]; [11],(1.4) %
same,"TIMI Major Bleeding, (%)",[1]; [11],(2.5) %
same,"TIMI Major or Minor Bleeding, (%)",[1]; [11],(4.0%
same,plasma ticagrelor levels lower with 60 mg vs 90 mg,clinical; 60 mg vs 90 mg,approximately ⅓
same,concentration at 2 h,clinical; 60 mg bid,448 ng/mL
same,concentration at 2 h,clinical; 90 mg bid,717 ng/mL
same,serum thromboxane B2 levels vs placebo group,thromboxane B2,no differences
same,onset of antiplatelet effect,platelets,≤ 2 h
